We go through 86 molecules from ChEMBL document CHEMBL1157539, “Thousands of chemical starting points for antimalarial lead identification” (Nature, 2010).

Structures are written as SMILES.

For the assay, the system named is Plasmodium falciparum. In words: GSK_TCMDC: Inhibition of Plasmodium falciparum 3D7 in whole erythrocytes, using parasite LDH activity as an index of growth. The assay is classed as functional, organism-based. Conditions: Plasmodium falciparum, 3D7.
`CCN1CCCC1CN(Cc1ccc(-c2ccc(C(F)(F)F)cc2)cc1)C(=O)Cn1c(CCc2cccc(F)c2F)nc(=O)c2ccccc21` (stereo unspecified) came in with an XC50 of 1590 nM.
For the molecule `CCN(CC)CCN(Cc1ccc(-c2ccc(C(F)(F)F)cc2)cc1)C(=O)Cn1c(SCc2ccc(F)cc2)nc(=O)c2sccc21`, the XC50 is 987 nM.
For the molecule `Cc1[nH]c(C)c(-c2ccc(Oc3ccccc3)cc2)c(=O)c1Br`, the XC50 is 46.8 nM.
Molecule `c1ccc(Nc2nc(-c3ccccn3)cs2)nc1` displayed an XC50 of 1150 nM.
On to `Cc1[nH]c(C)c(-c2ccc(Oc3ccc(F)cc3)cc2)c(=O)c1Cl`, for which the XC50 is 50.5 nM.
In the case of `Cc1ccc2cc(NC(=O)c3cccc(C(=O)Nc4ccc5nc(C)ccc5c4)n3)ccc2n1` it was 1170 nM; in that of `CCOC(=O)c1ccc(NC(=O)N[C@@H](Cc2ccccc2)C(=O)NC2CCN(Cc3ccc(O)c(OC)c3)C2)cc1` (stereo partly specified), 989 nM; in that of `CC(C)[C@H](NC(=O)c1ccc(O)c(-c2ccc(Cl)c(Cl)c2)c1)C(=O)NCCN1CCCCC1`, 339 nM.
With `Oc1ccc2[nH]cc(C3CCN(CCC(c4ccccc4)c4ccccc4)CC3)c2c1`, the XC50 is 994 nM.
In the case of `COC(=O)c1ccc(C[C@@H](C)NC[C@H](O)c2cccc(C(F)(F)F)c2)cc1` it was 790 nM; in that of `COc1ccc(NC(=O)CCNc2cc(C)nc(NCCOc3ccccc3)n2)cc1`, 746 nM; in that of `CCNc1cc(C(=O)N[C@@H](Cc2ccccc2)[C@H](O)CNCc2cccc(OC)c2)c(OC)c(N2CCCCS2(=O)=O)c1`, 689 nM.
The value for `Cc1ccc(F)c(OCC2CCCN(c3ccc(C(=O)NC4CC4)cn3)C2)c1` (stereo unspecified) was 773 nM.
Molecule `CCN(C(=O)NC)C1c2cc(C#N)ccc2OC(C)(C)C1O` (stereo unspecified) displayed an XC50 of 304 nM.
`COc1ccc2ncn(-c3ccc(C(N)=O)c(OCc4ccccc4C(F)(F)F)c3)c2c1` showed an XC50 of 540 nM.
Consider `COc1ccc(NC(=O)c2ccc3cc4ccccc4cc3c2)cc1N1CCN(C)CC1`, for which the XC50 is 1030 nM.
In turn, `c1ccc(-c2nc(NC3CCCCC3)cc(C3CC3)n2)nc1` had an XC50 of 728 nM.
In the case of `O=C(N[C@@H](Cc1ccccc1)C(=O)NCCN1CCCC1)c1ccc(O)c(-c2ccc(Cl)c(Cl)c2)c1` it was 800 nM; in that of `O=C(NCCCCCN1CCC(c2c[nH]c3ccccc23)CC1)Nc1cccc(Br)c1`, 1110 nM.
In the case of `CNCCNCc1ccc(-c2ccc(-c3nc4cccc(C)c4[nH]3)s2)cc1` it was 732 nM; in that of `O=C(/C=C/c1ccc(Cl)cc1)NCCCCCN1CCN(C(=O)C=Cc2ccc(Cl)c(Cl)c2)CC1`, 987 nM.
In the case of `CNC(=O)c1ccc2[nH]cc(C3CCN(CC4CCC(NC(=O)/C=C/c5ccccc5Cl)CC4)CC3)c2c1` (stereo unspecified) it was 836 nM.
As for `CN(C)CCOc1ccc(/C(=C(/CCCn2ccnc2)c2ccccc2)c2ccc(O)cc2)cc1`, the XC50 was determined as 772 nM.
In the case of `Cn1cc(C2CCN(CCCCNC(=O)c3ccc(-c4ccc(C(F)(F)F)cc4)c(CO)c3)CC2)c2ccccc21` it was 1000 nM; in that of `NCc1cccc(-c2ccc(CNC3CCN(Cc4ccccc4)CC3)cc2)c1`, 1700 nM.
In turn, `CC(=O)N(Cc1ccccc1-c1cccc(CNCCc2ccccc2)c1)C1CCN(Cc2ccccc2)CC1` registered an XC50 of 1100 nM.
As to `COc1ccc2ncc(F)c(CCN3CCC(NCc4cc(C)c5c(c4)OCCO5)CC3)c2n1`, the XC50 is 493 nM.
In turn, `c1ccc(COc2ccc(C3CCCCC3)cc2)nc1` gave an XC50 of 774 nM.
As for `CCCCOc1cc2ncc(C(=O)OCC)c(O)c2cc1OCCCC`, the XC50 is 201 nM.
The value for `N=C(N)c1ccc(NN=Cc2ccc(Oc3ccc(C(=N)N)cc3)cc2)cc1` was 90.2 nM.
On to `Cc1csc(NC(=O)c2cn(-c3ccccc3)nc2-c2cccs2)n1`, for which the XC50 is 911 nM.
The value for `Cc1[nH]c(C)c(-c2ccc(OCc3cc(C(F)(F)F)cc(C(F)(F)F)c3)nc2)c(=O)c1Cl` was 108 nM; that for `CC(C)CN1CCN(CCNc2c3ccccc3nc3ccccc23)CC1` was 818 nM.
Take `COc1ccc(NC(=O)N2CCCN(CCCCCNC(=O)/C=C/c3ccc(C(F)(F)F)cc3)CC2)cc1Cl`: the XC50 is 980 nM.
`CC1(C)NC(N)=NC(=N)N1OCCCCOc1ccc(Cl)cc1C1CCCCC1`: the XC50 was 3.2 nM.
In the case of `CN(C)CC(O)C(O)(c1ccccc1)c1ccc(F)cc1` (stereo unspecified) it was 1150 nM; in that of `CCCCSc1c(CNCCCCCCNCc2ccc3ccccc3c2SCCCC)ccc2ccccc12`, 999 nM; in that of `O=C(c1ccc([N+](=O)[O-])o1)N1CCN(c2nc3c(Cl)cccc3s2)CC1`, 980 nM.
In turn, `Cc1cccc2nc(-c3ccc(-c4cccc(NC(=O)NCc5cccc(F)c5)c4)s3)[nH]c12` showed an XC50 of 760 nM.
In turn, `CS(=O)(=O)NCCCNCc1ccc(-c2ccc(-c3nc4cc(F)ccc4[nH]3)s2)cc1` registered an XC50 of 811 nM.
`CN(c1ccc(C(=O)N[C@@H](CCC(=O)O)C(=O)O)cc1)S(=O)(=O)c1ccc2nc(N)[nH]c(=O)c2c1` returned an XC50 of 149 nM.
The value for `Cc1ccc(NC(=O)Nc2ccccc2)cc1-c1ccc(C(=O)Nc2ccncc2)cc1` was 240 nM; that for `CC(C)C[C@@H](/C=N/N1CCOC1=O)NC(=O)[C@H](CC(C)C)NC(=O)c1ccc(OCCN2CCOCC2)cc1` was 215 nM; that for `CC(C)Cc1nc2nc(N)nc(N)c2cc1C(C)C` was 226 nM.
Turning to `CC(=O)Nc1ccc(OCCN(CC(C)(C)C)c2ccc(C#N)c(C(F)(F)F)c2)c(Cl)c1`, the XC50 was found to be 493 nM.
The molecule `Nc1c2c(nc3ccccc13)C(=Cc1ccc(O)cc1)CCC2` registered an XC50 of 176 nM.
Turning to `COc1ccc(CCNC(=O)c2cnc3c(c2)nc(-c2c[nH]c(-c4ccccc4)n2)n3CCc2c[nH]cn2)cc1`, the XC50 came out at 970 nM.
In the case of `Cc1cc(N(C)C)nc(Nc2ccc(NC(=O)c3ccccc3Cl)cc2)n1` it was 1020 nM; in that of `Cc1[nH]c(C)c(-c2ccc(OCc3ccc(F)cc3)cc2)c(=O)c1Cl`, 566 nM.
The value for `O=C(CCc1c[nH]cn1)Nc1ccc(-c2cccc(-c3nc4ccccc4[nH]3)c2)cc1` was 348 nM; that for `CC(C)n1ncc2c(C(=O)N3CCCCCC3)cc(-c3ccccc3)nc21` was 789 nM.
In the case of `CC(=O)Nc1ccc(C(=O)NC2CCN(c3ccnc4cc(Cl)ccc34)C2)cc1` (stereo unspecified) it was 806 nM; in that of `CN(C)CCNC(=O)[C@H](CC1CCCCC1)NC(=O)c1ccc(O)c(-c2ccc(Cl)c(Cl)c2)c1`, 775 nM.
As to `CCOC(=O)NC1=NC(C)(C)N(OCc2cccc3c2ccc2ccccc23)C(NC(=O)OCC)=N1`, the XC50 is 172 nM.
In the case of `Cc1cc(N2CCN(C)CC2)nc2ccc(NC(=O)c3cccc(N(C)C)c3)cc12` it was 954 nM.
In the case of `Cc1nc(C(C)Nc2nncc(-c3ccc(Cl)cc3)n2)cs1` (stereo unspecified) it was 1330 nM; in that of `Cc1ccccc1C1CCN(C2CCC(NC(=O)/C=C/c3ccc(C#N)cc3)CC2)CC1` (stereo unspecified), 1170 nM.
Molecule `O=C(Cc1c[nH]cn1)Nc1cccc(-c2ccc(-c3nc4ccccc4[nH]3)cc2)c1` came in with an XC50 of 761 nM.
In the case of `OCC1CCN(Cc2ccc(-c3ccc(-c4nc5cc(F)ccc5[nH]4)cc3)cc2)CC1` it was 845 nM; in that of `Cc1cc(NCCCN2CCCC2=O)n2c(nc3ccccc32)c1C#N`, 858 nM; in that of `Cc1cc(NC(=O)[C@@H](Nc2ccc(C#N)c3ccccc23)C2CCCCC2)ccc1F`, 892 nM.
In the case of `COc1cccc(-c2cc(C(=O)Nc3ccc4[nH]c(-c5ccccc5)nc4c3)[nH]n2)c1`, the XC50 is 836 nM.
The value for `Nc1ccc(-c2nc3cc(Oc4ccc5[nH]c(-c6ccc(N)cc6)nc5c4)ccc3[nH]2)cc1` was 719 nM; that for `CS(=O)(=O)CCN(CCS(C)(=O)=O)Cc1ccc(-c2ccc3ncnc(Nc4ccc(OCc5cccc(F)c5)c(Cl)c4)c3c2)o1` was 1020 nM.
In the case of `CC1(C)CC(NCCCCCCCOc2ccc(OCc3ccccc3)cc2)CC(C)(C)N1`, the XC50 worked out at 827 nM.
Take `COc1ccc(C=NNc2ccnc3cc(F)c(C)cc23)c2ccccc12`: the XC50 was found to be 771 nM.
The value for `Cc1ccc(Cl)c2sc(N3CCN(C(=O)c4ccc([N+](=O)[O-])o4)CC3)nc12` was 325 nM; that for `O=C(/C=C/c1ccc(Cl)c(Cl)c1)NCCC1CCC(N2CCC(c3c[nH]c4ccccc34)CC2)CC1` (stereo unspecified) was 197 nM; that for `Cc1cc2c(NC(=O)NC3CCN(CCc4cccc(Cl)c4)CC3)cccc2cn1` was 370 nM.
On to `O=C(/C=C/c1ccc(Cl)c(Cl)c1)NCCCCCN1CCC(CCNC(=O)/C=C/c2cc(C(F)(F)F)ccc2F)CC1`, for which the XC50 worked out at 765 nM.
In the case of `O=C1OC(c2ccccc2)(c2ccccn2)CN1C1CCN(Cc2cccn2-c2ccc(Cl)cc2)CC1` (stereo unspecified) it was 475 nM; in that of `CC(C)(C)Oc1ccc(CC2NC3(C(=O)N(Cc4ccc(C(C)(C)C)cc4)c4ccccc43)C3C(=O)N(c4ccc(Br)cc4)C(=O)C23)cc1` (stereo unspecified), 717 nM.
Turning to `O=C(O)c1cccc2c(-c3ccncc3)cccc12`, the XC50 is 937 nM.
For the molecule `C[C@@H](N/C(=N\c1ccc(-c2ccccc2)cc1)Nc1ccc(C#N)cc1O)c1ccc(Br)cc1`, the XC50 was determined as 699 nM.
In the case of `Cc1ccc(-c2nn3c(O)c4c(nc3c2C)CCCC4)cc1` it was 217 nM; in that of `CCCC1(C)CSc2ccccc2C(c2ccccc2)N1` (stereo unspecified), 707 nM.
For `O=[N+]([O-])c1cccc(CNCC2CCN(CCc3ccccc3)CC2)c1`, the XC50 was determined as 785 nM.
The value for `CCCC(N)C(=O)NC1CCN(c2c(F)c(N)c3c(=O)c(C(=O)O)cn4c3c2Oc2ccccc2-4)C1` (stereo unspecified) was 359 nM; that for `Cc1ccc(NC(=O)c2c(C)noc2-c2snnc2C)cc1` was 1370 nM.
In the case of `O=C(NC(Nc1ccc([N+](=O)[O-])cc1)C(Cl)(Cl)Cl)c1ccc(Cl)cc1` (stereo unspecified) it was 782 nM.
The value for `O=[N+]([O-])c1cccc(CNCC2CCN(Cc3ccc4ccccc4c3)CC2)c1` was 876 nM.
The molecule `COc1ccc2ncc(F)c(CCN3CCC(NCc4cc(OC)c5c(c4)OCCO5)CC3)c2n1` yielded an XC50 of 572 nM.
`CC(Cc1ccc(NS(=O)(=O)c2ccc(CC(C)NCCc3cccc(Cl)c3)cc2)cc1)NCCc1cccc(Cl)c1` (stereo unspecified) returned an XC50 of 775 nM.
`O=C(NCC1CCC(C(=O)NCc2cccc3ccccc23)CC1)c1ccc(O)c(-c2ccc(Cl)c(Cl)c2)c1` (stereo unspecified) yielded an XC50 of 749 nM.
Take `Cc1ccccc1C1CCN(C2CCC(NC(=O)c3ccc(-c4ccccn4)s3)CC2)CC1` (stereo unspecified): the XC50 turned out to be 1180 nM.
`CCc1c(CCNCCCCCCNC(C)Cc2ccc3c(c2CC)OCO3)ccc(OC)c1OC` (stereo unspecified) came in with an XC50 of 870 nM.
